Results published in ChEMBL document CHEMBL1201862, “PubChem BioAssay data set” (2004).
Activity calls are given as the source filed them.

Tests used:
Protein skinhead-1 = molecular target: T1, Protein skinhead-1 (Caenorhabditis elegans, UniProt P34707); type: functional
T1 sequence (P34707 whole entry): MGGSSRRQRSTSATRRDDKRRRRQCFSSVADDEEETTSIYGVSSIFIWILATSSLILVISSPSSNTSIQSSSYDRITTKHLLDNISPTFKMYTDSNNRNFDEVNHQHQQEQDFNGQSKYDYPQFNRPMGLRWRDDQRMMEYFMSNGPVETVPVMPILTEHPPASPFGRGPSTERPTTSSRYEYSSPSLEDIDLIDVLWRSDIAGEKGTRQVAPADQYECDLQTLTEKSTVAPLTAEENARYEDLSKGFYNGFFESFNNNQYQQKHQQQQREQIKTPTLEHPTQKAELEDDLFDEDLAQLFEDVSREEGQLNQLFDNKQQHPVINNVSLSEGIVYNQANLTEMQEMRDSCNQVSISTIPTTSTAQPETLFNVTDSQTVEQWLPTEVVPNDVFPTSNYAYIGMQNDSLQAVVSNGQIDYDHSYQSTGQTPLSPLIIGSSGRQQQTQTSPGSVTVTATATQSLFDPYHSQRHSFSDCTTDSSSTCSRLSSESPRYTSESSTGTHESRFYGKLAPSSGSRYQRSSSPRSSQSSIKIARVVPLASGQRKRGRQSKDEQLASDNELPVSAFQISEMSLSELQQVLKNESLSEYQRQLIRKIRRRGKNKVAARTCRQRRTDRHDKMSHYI

Genome polyprotein = Genome polyprotein (dengue virus type 2, UniProt P29990); test: Dengue-2 NS5 methyltransferase inhibitors, primary screen, biochemical, confirmation dose response (AID 588689); type: functional
[1] = molecular target: T2, Heat shock factor protein 1 (Mus musculus, UniProt P38532); test: inhibition of MG132-induced HSE-luciferase signal, confirmation, cell-based, NIH3T3, luminescence, dose retest (AID 2382); type: functional;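 note: NIH3T3 fibroblasts with HSF1-driven luciferase reporter stressed by proteasome inhibitor MG132; luminescence from HSF1-driven luciferase expression after 8 hours of MG132 stress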
T2 sequence (P38532 whole entry): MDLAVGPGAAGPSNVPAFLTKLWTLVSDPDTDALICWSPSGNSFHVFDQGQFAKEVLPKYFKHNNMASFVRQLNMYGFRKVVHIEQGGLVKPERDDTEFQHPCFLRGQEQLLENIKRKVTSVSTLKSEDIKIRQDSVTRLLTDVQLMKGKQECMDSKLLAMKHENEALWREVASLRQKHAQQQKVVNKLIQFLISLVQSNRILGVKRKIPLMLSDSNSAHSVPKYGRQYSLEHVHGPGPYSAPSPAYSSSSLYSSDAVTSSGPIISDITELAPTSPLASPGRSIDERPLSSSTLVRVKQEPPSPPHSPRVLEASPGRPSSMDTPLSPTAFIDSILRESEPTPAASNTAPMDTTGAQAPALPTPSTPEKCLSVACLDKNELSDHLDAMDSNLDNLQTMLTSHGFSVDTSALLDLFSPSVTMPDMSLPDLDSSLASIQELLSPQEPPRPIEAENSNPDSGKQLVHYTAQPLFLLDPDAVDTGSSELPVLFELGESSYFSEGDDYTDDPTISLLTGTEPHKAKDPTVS

[2] = growth suppression of beta-catenin-knockout colon cells, dose response, cell-based, HCT116, human colon tumor (AID 1045); type: functional;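 note: HCT116 colon tumor cells with beta catenin knocked out; cells exposed to compound for 60 hours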
[3] = growth suppression of PTEN-null colon cells, dose response, cell-based, HCT116 PTEN knockout (AID 1047); type: functional;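 note: HCT116 colon tumor cells with PTEN knocked out; cells exposed to compound for 60 hours before readout; potency for loss of cell viability measured by luminescence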
[4] = Shn3 3'UTR reporter inhibitors, dose response, cell-based, Clone20 osteoblasts, firefly luciferase, cherry-picked (AID 624132); type: functional;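 note: firefly luciferase luminescence from reporter carrying the Shn3 3'UTR in osteoblasts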
[5] = control 3'UTR Renilla luciferase suppression, dose response, counter-screen for Shn3 inhibitor project, cell-based, Clone20-Shn3RL, cherry-picked (AID 624133); type: functional
[6] = HepG2 cell cytotoxicity, dose response, cytotoxicity control for Shn3 inhibitor project, CellTiter-Glo, cherry-picked (AID 624134); type: functional, cell-based
[7] = HEp-2 cell cytotoxicity, dose response, cytotoxicity control for RSV inhibitor project, HTS (AID 2410); type: functional; conditions: human respiratory syncytial virus
cells = type: functional
[8] = molecular target: T3, Carboxy-terminal domain RNA polymerase II polypeptide A small phosphatase 1 (Homo sapiens, UniProt Q9GZU7); test: inhibitors of CTDSP1, concentration-response testing, biochemical assay, absorbance-based, actives from ultra-high-throughput screening (AID 540297); type: functional
T3 sequence (Q9GZU7 whole entry): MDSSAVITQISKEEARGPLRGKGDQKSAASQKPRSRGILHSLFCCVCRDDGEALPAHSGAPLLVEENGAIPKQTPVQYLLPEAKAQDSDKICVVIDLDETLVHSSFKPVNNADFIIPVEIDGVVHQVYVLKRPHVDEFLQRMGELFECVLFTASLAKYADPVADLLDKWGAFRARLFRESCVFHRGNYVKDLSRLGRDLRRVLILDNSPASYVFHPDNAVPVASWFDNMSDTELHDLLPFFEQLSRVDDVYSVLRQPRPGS

[9] = molecular target: T4, Rac GTPase-activating protein 1 (Homo sapiens, UniProt Q9H0H5); test: MgcRacGAP GTPase-activating activity inhibitors, confirmation, biochemical, ADP Hunter fluorescence, primary and confirmatory (AID 624330); type: functional
T4 sequence (Q9H0H5 whole entry): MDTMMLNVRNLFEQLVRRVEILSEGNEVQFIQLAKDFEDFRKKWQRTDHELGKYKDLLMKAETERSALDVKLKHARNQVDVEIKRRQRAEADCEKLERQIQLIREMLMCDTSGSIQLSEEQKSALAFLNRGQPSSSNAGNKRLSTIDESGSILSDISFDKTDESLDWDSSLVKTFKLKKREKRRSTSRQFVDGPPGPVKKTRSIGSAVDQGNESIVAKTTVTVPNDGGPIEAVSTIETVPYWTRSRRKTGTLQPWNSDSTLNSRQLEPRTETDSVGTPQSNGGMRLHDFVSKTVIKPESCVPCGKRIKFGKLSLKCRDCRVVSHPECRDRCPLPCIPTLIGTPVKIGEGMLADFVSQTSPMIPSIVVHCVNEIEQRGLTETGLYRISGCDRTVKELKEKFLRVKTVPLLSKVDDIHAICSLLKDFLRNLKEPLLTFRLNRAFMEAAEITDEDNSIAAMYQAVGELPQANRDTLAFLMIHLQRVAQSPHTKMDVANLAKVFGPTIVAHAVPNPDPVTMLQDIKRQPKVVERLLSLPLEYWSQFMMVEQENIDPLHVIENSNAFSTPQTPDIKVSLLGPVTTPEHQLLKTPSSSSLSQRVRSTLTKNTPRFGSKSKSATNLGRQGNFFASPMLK

Cytochrome P450 2C9 = Cytochrome P450 2C9 (Homo sapiens, UniProt P11712)
[10] = cytotoxicity toward NIH3T3 fibroblasts, dose response, counter-screen, cell-based, ATP luminescence, mouse fibroblasts (AID 2010); type: functional;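 note: cells exposed to compound for about 90 hours before reading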
[11] = inhibitors of intracellular T. cruzi replication, confirmation, NIH3T3 host cells, beta-gal luminescence (AID 2044); type: functional, cell-based;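 note: intracellular parasites grown in NIH/3T3 mouse fibroblasts as host cells; luminescent beta-galactosidase reporter signal from transgenic T. cruzi replicating inside host cells; inhibitors lower the luminescence signal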
Streptokinase A = molecular target: T5, Streptokinase A (Streptococcus pyogenes serotype M1, UniProt P10520); test: S. pyogenes streptokinase expression inhibitors, potency, dose response, plasminogen activation absorbance, OD405 (AID 1914); type: functional, Streptococcus pyogenes M1 GAS;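 note: secreted streptokinase activity via plasminogen activation per viability signal from cell pellet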
T5 sequence (P10520 whole entry): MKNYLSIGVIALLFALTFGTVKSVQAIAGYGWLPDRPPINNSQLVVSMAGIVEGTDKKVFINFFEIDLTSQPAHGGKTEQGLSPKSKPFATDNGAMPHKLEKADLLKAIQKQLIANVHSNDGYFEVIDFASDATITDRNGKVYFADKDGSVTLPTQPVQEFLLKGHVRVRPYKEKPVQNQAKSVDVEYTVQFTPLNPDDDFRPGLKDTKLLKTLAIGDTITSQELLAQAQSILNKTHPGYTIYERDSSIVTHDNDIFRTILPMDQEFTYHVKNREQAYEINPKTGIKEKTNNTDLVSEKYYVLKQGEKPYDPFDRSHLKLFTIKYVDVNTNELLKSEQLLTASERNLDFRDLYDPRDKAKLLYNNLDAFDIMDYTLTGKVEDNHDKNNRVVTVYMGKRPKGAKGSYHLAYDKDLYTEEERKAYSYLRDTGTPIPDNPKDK

Streptococcus = test: Group A Streptococcus viability loss, dose response, counter-screen for streptokinase expression inhibitor project, luminescence, BacTiterGlo (AID 1915); type: functional, organism-based;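 note: potency for reduction of bacterial viability or growth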
[12] = tested on: Streptococcus sp. 'group A'; test: growth inhibition of control SK(-) GAS strain, dose response, counter-screen for streptokinase expression inhibitor project, luminescence, kanamycin, BacTiterGlo, confirmation (AID 1900); type: functional, organism-based
[13] = molecular target: FAD-linked sulfhydryl oxidase ALR (Homo sapiens, UniProt P55789); test: inhibitors of human ALR sulfhydryl oxidase, dose response, biochemical, H2O2 detection, luminescence, cherry-pick (AID 493248)
Chain of FAD-linked sulfhydryl oxidase ALR (P55789 whole entry): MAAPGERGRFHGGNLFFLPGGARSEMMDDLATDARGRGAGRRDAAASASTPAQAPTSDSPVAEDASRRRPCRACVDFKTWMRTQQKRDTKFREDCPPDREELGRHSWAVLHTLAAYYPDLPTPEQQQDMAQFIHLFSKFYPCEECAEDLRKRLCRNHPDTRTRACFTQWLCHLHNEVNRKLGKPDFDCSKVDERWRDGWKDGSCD

Chain of Genome polyprotein (P29990 2492-3391 limits assumed): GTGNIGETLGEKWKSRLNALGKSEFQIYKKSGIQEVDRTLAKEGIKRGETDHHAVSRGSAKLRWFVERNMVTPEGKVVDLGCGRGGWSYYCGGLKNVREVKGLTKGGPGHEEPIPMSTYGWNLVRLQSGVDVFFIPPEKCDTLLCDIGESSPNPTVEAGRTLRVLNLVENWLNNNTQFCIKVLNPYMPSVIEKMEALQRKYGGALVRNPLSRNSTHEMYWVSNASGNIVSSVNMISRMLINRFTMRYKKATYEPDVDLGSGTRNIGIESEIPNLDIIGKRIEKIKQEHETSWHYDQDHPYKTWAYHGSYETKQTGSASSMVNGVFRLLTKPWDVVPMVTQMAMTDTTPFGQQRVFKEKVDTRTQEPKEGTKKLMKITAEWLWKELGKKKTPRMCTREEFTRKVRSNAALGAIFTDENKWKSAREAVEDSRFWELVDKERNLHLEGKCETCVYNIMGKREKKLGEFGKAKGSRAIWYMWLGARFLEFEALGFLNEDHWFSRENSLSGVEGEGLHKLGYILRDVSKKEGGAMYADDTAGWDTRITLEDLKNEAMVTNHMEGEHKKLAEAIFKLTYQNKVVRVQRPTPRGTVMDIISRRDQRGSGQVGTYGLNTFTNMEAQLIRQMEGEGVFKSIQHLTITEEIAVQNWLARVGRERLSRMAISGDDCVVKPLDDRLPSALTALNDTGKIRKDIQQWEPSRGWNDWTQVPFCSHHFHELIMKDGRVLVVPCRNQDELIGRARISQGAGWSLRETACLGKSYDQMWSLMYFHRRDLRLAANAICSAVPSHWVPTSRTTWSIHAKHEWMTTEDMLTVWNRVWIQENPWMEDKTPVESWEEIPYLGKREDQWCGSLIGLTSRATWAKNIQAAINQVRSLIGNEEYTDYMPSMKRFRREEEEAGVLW
Chain of Cytochrome P450 2C9 (P11712 whole entry): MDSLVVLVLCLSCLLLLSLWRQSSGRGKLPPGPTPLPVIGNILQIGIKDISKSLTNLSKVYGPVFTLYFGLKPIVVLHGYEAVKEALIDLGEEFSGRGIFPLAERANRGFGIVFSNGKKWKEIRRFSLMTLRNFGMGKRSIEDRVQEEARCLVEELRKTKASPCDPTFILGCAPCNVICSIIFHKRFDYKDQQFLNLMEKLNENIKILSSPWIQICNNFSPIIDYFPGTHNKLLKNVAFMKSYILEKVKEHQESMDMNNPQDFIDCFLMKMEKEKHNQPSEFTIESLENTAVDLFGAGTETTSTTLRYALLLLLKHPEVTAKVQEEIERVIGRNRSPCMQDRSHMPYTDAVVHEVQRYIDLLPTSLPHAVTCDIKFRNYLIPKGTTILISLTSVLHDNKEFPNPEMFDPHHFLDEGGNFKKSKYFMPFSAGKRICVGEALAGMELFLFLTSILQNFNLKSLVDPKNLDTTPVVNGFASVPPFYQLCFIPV

Q: With `CCOc1ccccc1C(=O)Nc1ccc(-n2nncc2C(C)(C)C)cc1` as the compound, how does the IC50 (Protein skinhead-1) read?
A: > 100 µM (inactive)

Q: With `Cc1c(Br)c(O)c(Br)c2sc(=O)oc12` as the compound, how does the IC50 (Genome polyprotein) read?
A: 62.3 µM (active)

Q: With `CCOc1ccc2nc(NC(=O)c3cc([N+](=O)[O-])ccc3N3CCOCC3)sc2c1` as the compound, how does the EC50 [1] read?
A: 15 µM (active)

Q: And the EC50 [2]?
A: 48.5 µM (active)

Q: What about the EC50 [3] of the same compound?
A: 23.3 µM (active)

Q: Which AC50 [4] does the source give for `COc1ccc(-n2c(C)cc(C(=O)CSc3nnc(-c4cccs4)o3)c2C)cc1` here?
A: 5.03 µM (active)

Q: And the AC50 [5]?
A: 5.62 µM (active)

Q: And the AC50 [6]?
A: 48.6 µM (active)

Q: For `O=C(NC(=S)Nc1ccc(CN2CCCCC2)cc1)c1cc2ccccc2o1`, which IC50 (Protein skinhead-1) is on record?
A: 32.2 µM (active)

Q: For `CC(=O)NC(=S)Nc1cccc2c(C)cc(C)nc12`, which CC50 [7] is on record?
A: > 50 µM (active)

Q: For `Cc1onc(-c2ccccc2)c1C(=O)Nc1nc2c(s1)C(=O)CC(C)(C)C2`, which IC50 (Protein skinhead-1) is on record?
A: > 100 µM (inactive)

Q: Which IC50 (cells) does the source give for `Cc1ccn2nc(S(=O)(=O)Nc3c(F)cccc3F)nc2n1` here?
A: 11.2 µM (active)

Q: Which IC50 [8] does the source give for `COc1cc(/C=C2\C(=N)N3N=C(S(C)(=O)=O)SC3=NC2=O)ccc1OC(=O)c1ccco1` here?
A: 4.55 µM (active)

Q: With `CCN(CC)CCC(c1cc(OC)c(OC)c(OC)c1)c1c(OC)cc(OC)c2c(C)cc(=O)oc12` (configuration not stated) as the compound, how does the IC50 (Protein skinhead-1) read?
A: > 100 µM (inactive)

Q: With `Cc1ccc(-c2noc(CCCC(=O)Nc3cccnc3)n2)cc1` as the compound, how does the IC50 (cells) read?
A: 37.4 µM (active)

Q: For `Cc1cc(C)c(C(=O)COC(=O)c2ccc([N+](=O)[O-])o2)cc1C`, which IC50 (cells) is on record?
A: 1 µM (active)

Q: Which EC50 [2] does the source give for `O=C1CCCCCN1Sc1ccccc1` here?
A: 16.9 µM (active)

Q: What about the IC50 [9] of the same compound?
A: 87.6 µM (active)

Q: What about the EC50 [3] of the same compound?
A: 20.2 µM (active)

Q: With `COC(=O)c1ccc(CCc2cc(O)ccc2O)cc1` as the compound, how does the AC50 (Cytochrome P450 2C9) read?
A: 7.94 µM (inconclusive)

Q: What about the AC50 [4] of the same compound?
A: 3.14 µM (active)

Q: And the AC50 [5]?
A: 14.5 µM (active)

Q: And the AC50 [6]?
A: > 70 µM (inactive)

Q: Which IC50 (cells) does the source give for `CCO/C(O)=C/c1nc2ccccc2oc1=O` here?
A: 2.88 µM (active)

Q: Which IC50 (cells) does the source give for `Cc1[nH]c2ccccc2c1C(=O)C(C)OC(=O)c1ccc([N+](=O)[O-])o1` (configuration not stated) here?
A: < 0.1 µM (active)

Q: For `CC1(C)CC(=O)C(=Cc2cn(CCC#N)nc2-c2ccc(Cl)cc2)C(=O)C1`, which IC50 (Genome polyprotein) is on record?
A: 31.8 µM (active)

Q: For `CCN(CC)C(=O)Oc1ccc2cc(Br)ccc2c1`, which CC50 [7] is on record?
A: 37 µM (active)

Q: For `O=C(O)c1cc(S(=O)(=O)N2CCN(S(=O)(=O)c3ccc4ccccc4c3)CC2)ccc1Br`, which IC50 [8] is on record?
A: 6.22 µM (active)

Q: What does the source list for `CC1N(C)c2cc(NC(=O)c3cccs3)c(P(=O)(Nc3ccc([N+](=O)[O-])cc3)N3CCOCC3)cc2C1(C)C` (configuration not stated)?
A: EC50 [10]: > 30 µM (not active); CC50 [7]: 32.1 µM (active); EC50 [11]: 1.98 µM (active)

Q: Which CC50 [7] does the source give for `COc1ccc(CCNC(=O)c2cc(-c3ccc(C)c(C)c3O)[nH]n2)cc1OC` here?
A: > 50 µM (active)

Q: Which AC50 [4] does the source give for `C=C1C(=O)OC2C=C(CO)C3OC3C3OC3(C)CC(OC(=O)/C(=C/C)COC(C)=O)C12` (configuration not stated) here?
A: 5.89 µM (active)

Q: What about the AC50 [5] of the same compound?
A: 9.84 µM (active)

Q: What about the AC50 [6] of the same compound?
A: 32.2 µM (active)

Q: For `COC(=O)COc1ccc(S(=O)(=O)N2CCCCCC2)cc1`, which IC50 (cells) is on record?
A: 33.5 µM (active)

Q: For `Cc1cc(=O)c2c(o1)C(=O)c1occc1C2=O`, which IC50 (Genome polyprotein) is on record?
A: 62.4 µM (active)

Q: With `CCC(C)(C)c1nnc(NC(=O)CCC2CCCCC2)s1` as the compound, how does the IC50 (Protein skinhead-1) read?
A: > 100 µM (inactive)

Q: What does the source list for `O=C(Oc1ccc(/N=C2\C(=O)c3ccccc3C(O)=C2Cl)cc1)c1ccc([N+](=O)[O-])cc1`?
A: EC50 (Streptokinase A): > 150 µM (not active); EC50 [2]: 4.97 µM (active); EC50 (Streptococcus): 44.1 µM (active); EC50 [3]: 9.05 µM (active); EC50 [12]: 20.7 µM (active)

Q: With `Cc1ccc([N+](=O)[O-])cc1/N=C(\c1cccc(Br)c1)N1CCOCC1` as the compound, how does the CC50 [7] read?
A: 40.2 µM (active)

Q: With `CC(=O)/N=C1\SC2CS(=O)(=O)CC2N1c1cccc(Cl)c1Cl` (configuration not stated) as the compound, how does the IC50 (Protein skinhead-1) read?
A: > 100 µM (inactive)

Q: Which CC50 [7] does the source give for `Cc1ccc(-c2csc(N=C(N)N)n2)cc1` here?
A: 46.4 µM (active)

Q: What about the AC50 [13] of the same compound?
A: 1.05 µM (active)
